Consider 4 compounds from patent US20100173835A1, “Peptides for Treatment of Obesity” (Novo Nordisk A/S, priority 2008, published 2010).

In brackets after ≈: the same amount, converted by molar mass. Read-outs that look alike come from different tables or passages of the source. Where a SMILES comes first, the peptide text is derived from it. Bridges are numbered along the chain shown (N, C = ends). [ ]: non-standard residue; d: D form. The star is where a group is joined. Palmitoyl(16-(5-tetrazolyl)) = O=C(CCCCCCCCCCCCCCCc1nnn[nH]1)*; Hyp = O=C(O)[C@@H]1C[C@@H](O)CN1; NTA = O=C(O)CN(CC(=O)O)CC(=O)*; Nle = CCCC[C@H](N)C(=O)O; Orn = NCCC[C@H](N)C(=O)O; Dap = NC[C@H](N)C(=O)O; AEEA = NCCOCCOCC(=O)O

For one series, the target named is T1, human MC4 receptor (Homo sapiens, UniProt P32245).
T1 construct: expressed in transfected cells
The series can be described thus: Assay (V) Melanocortin Receptor 4 (MC4) binding assay. The note with it: 125NDP-α-MSH binding, BHK cell membranes. The protocol:
Assay (V)—Melanocortin Receptor 4 (MC4) Binding Assay
In vitro ^125NDP-α-MSH binding to recombinant BHK cells expressing human MC4 receptor (filtration assay).
The assay is performed in 5 ml minisorb vials (Sarstedt No. 55.526) or in 96-well filterplates (Millipore MADVN 6550), and using BHK cells expressing the human MC4 receptor using BHK cells stably expressing the human MC4 receptor. The membranes were prepared from frozen or fresh cells that were homogenized in 20 mM HEPES pH 7.1, 5 mM MgCl2 and 1 mg/ml bacitracin and centrifuged at 15000 rpm at 4° C., 10 min in a Sorvall RC 5B plus, SS-34 rotor. The supernatant was discarded, and the pellets were re-suspended in buffer, homogenized and centrifuged two more times. The final pellets were resuspended in the buffer mentioned above, and the protein concentration was measured and adjusted with buffer to 14 to 17 mg/ml and the membrane preparation were kept at −80° C. until assay. The assay was run directly on a dilution of this cell membrane suspension, without any further preparation. The BHK cell membranes are kept at −80° C. until assay, and the assay is run directly on a dilution of this cell membrane suspension, without further preparation. The suspension is diluted to give maximally 10% specific binding, i.e. to approx. 50-100 fold dilution. The assay is performed in a total volume of 200 μl: 50 μl of cell suspension, 50 μl of ^125NDP-α-MSH (≈79 pM in final concentration), 50 μl of test compound and 50 μl binding buffer (pH 7) mixed and incubated for 2 h at 25° C. [binding buffer: 25 mM HEPES, pH 7.0, 1 mM CaCl2, 1 mM MgSO4, 1 mM EGTA, 0.02% Bacitracin, 0.005% Tween™ 20 and 0.1% HSA or, alternatively, 0.1% ovalbumin (Sigma; catalogue No. A-5503)]. Test compounds are dissolved in DMSO and diluted in binding buffer. Radiolabelled ligand and membranes are diluted in binding buffer. The incubation is stopped by dilution with 2×100 μl ice-cold 0.9% NaCl. The radioactivity retained on the filters is counted using a Cobra II auto gamma counter.
(§1) The data are analysed by non-linear regression analysis of binding curves, using the Windows™ program GraphPad™ Prism (GraphPad Software, USA).

A short description of series [1]: Solubility data of compounds in water over the pH range. In kind it is physicochemical.
Another series addresses T2, MC1 receptor (Homo sapiens, UniProt Q01726).
T2 construct: expressed in transfected cells
Put plainly: Assay (IV) Melanocortin Receptor 1 (MC1) binding assay. The method, then:
Assay (IV)—Melanocortin Receptor 1 (MC1) Binding Assay
The MC1 receptor binding assay is performed on BHK cell membranes stably expressing the MC1 receptor. The assay is performed in a total volume of 250 NI: 25 μl of ^125NDP-α-MSH (22 pM in final concentration), 25 μl of test compound/control and 200 μl of cell membrane (25 μg/ml). Test compounds are dissolved in DMSO. Radioactively labeled ligand, membranes and test compounds are diluted in buffer: 25 mM HEPES, pH 7.4, 0.1 mM CaCl2, 1 mM MgSO4, 1 mM EDTA, 0.1% HSA and 0.005% Tween™ 20. Alternatively, HSA may be substituted with ovalbumin. The samples are incubated at 30° C. for 90 min. in Costar round-bottom microtiter plates. Incubation is terminated by filtration on a Packard harvester filtermate. Rapid filtration through Packard Unifilter-96 GF/B filters pre-treated with polyethylenimine (PerkinElmer 6005277). The filters are washed with ice-cold 0.9% NaCl 8-10 times. The plates is air dried at app. 55° C. for 30 min, and 50 μl Microscint 0 (Packard, cat. No. 6013616) is added to each well. The plates are counted in a Topcounter (1 min/well).
as §1

The mark [2] stands for this setting: 125NDP-α-MSH binding, BHK cell membranes, read-out: Assay (IV) MC1 Ki.

T2 sequence (Q01726 whole entry): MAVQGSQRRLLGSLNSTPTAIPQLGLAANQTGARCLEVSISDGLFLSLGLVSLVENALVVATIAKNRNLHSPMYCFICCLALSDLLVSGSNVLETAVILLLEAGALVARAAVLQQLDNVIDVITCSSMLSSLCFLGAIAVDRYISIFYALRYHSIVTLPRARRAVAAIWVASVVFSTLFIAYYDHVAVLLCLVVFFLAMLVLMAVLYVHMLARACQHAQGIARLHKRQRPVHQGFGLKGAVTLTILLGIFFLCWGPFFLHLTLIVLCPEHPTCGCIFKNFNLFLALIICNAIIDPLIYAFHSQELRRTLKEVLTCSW
T1 sequence (P32245 whole entry): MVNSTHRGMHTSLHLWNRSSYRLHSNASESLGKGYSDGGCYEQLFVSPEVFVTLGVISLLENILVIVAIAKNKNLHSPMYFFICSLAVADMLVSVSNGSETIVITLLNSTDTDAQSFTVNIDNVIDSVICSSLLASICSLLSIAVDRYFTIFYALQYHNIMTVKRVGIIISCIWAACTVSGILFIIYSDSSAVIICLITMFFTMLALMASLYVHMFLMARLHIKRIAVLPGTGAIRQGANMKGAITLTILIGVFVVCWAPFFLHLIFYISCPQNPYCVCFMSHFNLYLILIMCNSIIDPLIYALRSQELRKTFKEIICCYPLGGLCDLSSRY

Usually Ki stands for a measure of affinity in units of concentration, obtained from inhibition or displacement. By solubility is commonly meant the concentration that dissolves in the medium under given conditions. Turning to `CCCC[C@H](NC(=O)[C@H](CCCNC(=O)CN(CC(=O)O)CC(=O)O)NC(=O)[C@H](Cc1c[nH]cn1)NC(=O)[C@H](CCC(N)=O)NC(=O)[C@H](CO)NC(=O)CNC(=O)COCCOCCNC(=O)CCCCCCCCCCCCCCCc1nnn[nH]1)C(=O)N[C@H]1CCC(=O)NCCCC[C@@H](C(N)=O)NC(=O)[C@H](Cc2c[nH]c3ccccc23)NC(=O)[C@H](CCCNC(=N)N)NC(=O)[C@@H](Cc2ccccc2)NC(=O)[C@@H]2C[C@@H](O)CN2C1=O` [Example 8, (2-{2-[16-(Tetrazol-5-yl)hexadecanoylamino]ethoxy}ethoxy)acetyl-Gly-Ser-Gln-His-Orn(BCMA)-Nle-c[Glu-Hyp-D-Phe-Arg-Trp-Lys]-NH2] ({Palmitoyl(16-(5-tetrazolyl))-AEEA}-GSQH[Orn](NTA)[Nle]E[Hyp][dF]RWK-NH2; lactam 7-12), the Ki at human MC4 receptor (Assay (V) MC4 [Ki] (nM)) was 0.9 nM; at MC1 receptor, > 10000 nM. For the same compound, the solubility at 3 days in series [1] (pH 2.96, pH 2.96, read-out: Conc (solubility in water)) amounted to 716 µM (≈ 1520 µg/mL); in series [1] (pH 4.1, pH 4.1, read-out: Conc (solubility in water)) it was 536 µM (≈ 1140 µg/mL); in series [1] (pH 4.24, pH 4.24, read-out: Conc (solubility in water)), 389 µM (≈ 825 µg/mL); in series [1] (pH 4.87, pH 4.87, read-out: Conc (solubility in water)), 34 µM (≈ 72.1 µg/mL); in series [1] (pH 5.9, pH 5.9, read-out: Conc (solubility in water)), 10 µM (≈ 21.2 µg/mL); in series [1] (pH 6.7, pH 6.7, read-out: Conc (solubility in water)), 26 µM (≈ 55.1 µg/mL). Further, the solubility at 3 days in series [1] (pH 7.45, pH 7.45, read-out: Conc (solubility in water)) was 271 µM (≈ 575 µg/mL); in series [1] (pH 7.47, pH 7.47, read-out: Conc (solubility in water)) it was 116 µM (≈ 246 µg/mL); in series [1] (pH 7.75, pH 7.75, read-out: Conc (solubility in water)), 280 µM (≈ 594 µg/mL); in series [1] (pH 7.95, pH 7.95, read-out: Conc (solubility in water)), 546 µM (≈ 1160 µg/mL).

Regarding `CCCC[C@H](NC(=O)[C@H](CNC(=O)CN(CC(=O)O)CC(=O)O)NC(=O)[C@H](CO)NC(=O)[C@H](CCC(N)=O)NC(=O)[C@H](CO)NC(=O)CNC(=O)COCCOCCNC(=O)COCCOCCNC(=O)COCCOCCNC(=O)COCCOCCNC(=O)CCCCCCCCCCCCCCCc1nnn[nH]1)C(=O)N[C@H]1CCC(=O)NCCCC[C@@H](C(N)=O)NC(=O)[C@H](Cc2c[nH]c3ccccc23)NC(=O)[C@H](CCCNC(=N)N)NC(=O)[C@@H](Cc2ccccc2)NC(=O)[C@@H]2C[C@@H](O)CN2C1=O` [Example 14, (2-{2-[2-(2-{2-[2-(2-{2-[2-(2-{2-[16-(Tetrazol-5-yl)hexadecanoylamino]ethoxy}ethoxy)acetylamino]ethoxy}ethoxy)acetylamino]ethoxy}ethoxy)acetylamino]ethoxy}ethoxy)acetyl-Gly-Ser-Gln-Ser-Dap(BCMA)-Nle-c[Glu-Hyp-D-Phe-Arg-Trp-Lys]-NH2] ({Palmitoyl(16-(5-tetrazolyl))-AEEA-AEEA-AEEA-AEEA}-GSQS[Dap](NTA)[Nle]E[Hyp][dF]RWK-NH2; lactam 7-12), the Ki at human MC4 receptor (read-out: Assay (V) MC4 [Ki]) is 8.65 nM; on MC1 receptor (setting [2]) it was > 10000 nM. Further, the solubility at 3 days in series [1] (pH 3.18) worked out at 19 µM (≈ 47.1 µg/mL); in series [1] (pH 4.62), 15 µM (≈ 37.2 µg/mL); in series [1] (pH 4.66) it was 23 µM (≈ 57 µg/mL); in series [1] (pH 5.07), 18 µM (≈ 44.6 µg/mL); in series [1] (pH 5.37) it was 10 µM (≈ 24.8 µg/mL); in series [1] (pH 5.84), 41 µM (≈ 102 µg/mL). Besides, the solubility at 3 days was 19 µM (≈ 47.1 µg/mL) in series [1] (pH 6.5), 17 µM (≈ 42.1 µg/mL) in series [1] (pH 7), 20 µM (≈ 49.6 µg/mL) in series [1] (pH 7.29) and 29 µM (≈ 71.9 µg/mL) in series [1] (pH 7.43).

On to `CCCC[C@H](NC(=O)[C@H](CNC(=O)CN(CC(=O)O)CC(=O)O)NC(=O)[C@H](Cc1c[nH]cn1)NC(=O)[C@H](CCC(N)=O)NC(=O)[C@H](CO)NC(=O)CNC(=O)COCCOCCNC(=O)COCCOCCNC(=O)COCCOCCNC(=O)COCCOCCNC(=O)CCCCCCCCCCCCCCCc1nnn[nH]1)C(=O)N[C@H]1CCC(=O)NCCCC[C@@H](C(N)=O)NC(=O)[C@H](Cc2c[nH]c3ccccc23)NC(=O)[C@H](CCCNC(=N)N)NC(=O)[C@@H](Cc2ccccc2)NC(=O)[C@@H]2C[C@@H](O)CN2C1=O` [Example 16, (2-{2-[2-(2-{2-[2-(2-{2-[2-(2-{2-[16-(Tetrazol-5-yl)hexadecanoylamino]ethoxy}ethoxy)acetylamino]ethoxy}ethoxy)acetylamino]ethoxy}ethoxy)acetylamino]ethoxy}ethoxy)acetyl-Gly-Ser-Gln-His-Dap(BCMA)-Nle-c[Glu-Hyp-D-Phe-Arg-Trp-Lys]-NH2] ({Palmitoyl(16-(5-tetrazolyl))-AEEA-AEEA-AEEA-AEEA}-GSQH[Dap](NTA)[Nle]E[Hyp][dF]RWK-NH2; lactam 7-12), for which the results for the Ki on human MC4 receptor (read-out: Assay (V) MC4 [Ki]) and at MC1 receptor (setting [2]) were 2.75 nM and > 10000 nM, respectively. Moreover, the solubility at 3 days in series [1] (pH 3.18) amounted to 531 µM (≈ 1340 µg/mL); in series [1] (pH 4.32), 515 µM (≈ 1300 µg/mL); in series [1] (pH 4.67) it was 492 µM (≈ 1240 µg/mL); in series [1] (pH 4.89) it was 450 µM (≈ 1140 µg/mL); in series [1] (pH 4.98), 347 µM (≈ 877 µg/mL); in series [1] (pH 5.75), 41 µM (≈ 104 µg/mL). Further, the solubility at 3 days came out at 51 µM (≈ 129 µg/mL) in series [1] (pH 6.37), 93 µM (≈ 235 µg/mL) in series [1] (pH 6.66), 454 µM (≈ 1150 µg/mL) in series [1] (pH 7.3) and 596 µM (≈ 1510 µg/mL) in series [1] (pH 7.66).

Turning to `CCCC[C@H](NC(=O)[C@H](CNC(=O)CN(CC(=O)O)CC(=O)O)NC(=O)[C@H](Cc1c[nH]cn1)NC(=O)[C@H](CCC(N)=O)NC(=O)[C@H](CO)NC(=O)[C@H](CCC(=O)O)NC(=O)COCCOCCNC(=O)CCCCCCCCCCCCCCCc1nnn[nH]1)C(=O)N[C@H]1CCC(=O)NCCCC[C@@H](C(N)=O)NC(=O)[C@H](Cc2c[nH]c3ccccc23)NC(=O)[C@H](CCCNC(=N)N)NC(=O)[C@@H](Cc2ccccc2)NC(=O)[C@@H]2C[C@@H](O)CN2C1=O` [Example 17, (2-{2-[16-(Tetrazol-5-yl)hexadecanoylamino]ethoxy}ethoxy)acetyl-Glu-Ser-Gln-His-Dap(BCMA)-Nle-c[Glu-Hyp-D-Phe-Arg-Trp-Lys]-NH2] ({Palmitoyl(16-(5-tetrazolyl))-AEEA}-ESQH[Dap](NTA)[Nle]E[Hyp][dF]RWK-NH2; lactam 7-12), the Ki on human MC4 receptor (read-out: Assay (V) MC4 [Ki]) is 5.4 nM; on MC1 receptor (setting [2]), > 10000 nM. The solubility at 3 days in series [1] (pH 3.32, pH 3.32, read-out: Conc (solubility in water)) was 34 µM (≈ 73.6 µg/mL); in series [1] (pH 3.76, pH 3.76, read-out: Conc (solubility in water)), 25 µM (≈ 54.1 µg/mL); in series [1] (pH 4.31, pH 4.31, read-out: Conc (solubility in water)), 20 µM (≈ 43.3 µg/mL); in series [1] (pH 4.56, pH 4.56, read-out: Conc (solubility in water)) it was 20 µM (≈ 43.3 µg/mL); in series [1] (pH 4.94, pH 4.94, read-out: Conc (solubility in water)), 23 µM (≈ 49.8 µg/mL); in series [1] (pH 5.55, pH 5.55, read-out: Conc (solubility in water)) it was 39 µM (≈ 84.4 µg/mL). The solubility at 3 days in series [1] (pH 6.04, pH 6.04, read-out: Conc (solubility in water)) was 127 µM (≈ 275 µg/mL); in series [1] (pH 6.34, pH 6.34, read-out: Conc (solubility in water)) it was 226 µM (≈ 489 µg/mL); in series [1] (pH 6.89, pH 6.89, read-out: Conc (solubility in water)), 303 µM (≈ 656 µg/mL); in series [1] (pH 7.62, pH 7.62, read-out: Conc (solubility in water)), 351 µM (≈ 760 µg/mL).
